Measurements from ChEMBL document CHEMBL1201862, “PubChem BioAssay data set” (2004).
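Briefly, cells in 96-well plates were exposed to five compound concentrations for 48 h, and endpoints were estimated by linear interpolation. At the GI50, growth is halved.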 Active and inactive are the calls of the source. No stated cut-off is given here; in the data, active = GI50 up to about 1.1 µM and inactive = higher.

Tests used:
Experiment in all cases: growth of human tumour cells (NCI), 48 h
[1] = system: MDA-MB-435
[2] = system: KM12
[3] = system: SW-620
[4] = system: M14
[5] = system: NCI/ADR-RES
[6] = system: CAKI-1
[7] = system: LOX IMVI
[8] = system: SF-295
[9] = system: RXF 393
[10] = system: OVCAR-3
[11] = system: SK-MEL-5
[12] = system: ACHN
[13] = system: NCI-H23
[14] = system: HT-29
[15] = system: DU-145
[16] = system: U-251
[17] = system: UO-31
[18] = system: IGROV-1
[19] = system: MDA-N
[20] = system: 786-0
[21] = system: HCT-116
[22] = system: UACC-257
[23] = system: PC-3
[24] = system: HCT-15
[25] = system: UACC-62
[26] = system: HOP-92
[27] = system: BT-549
[28] = system: MCF7
[29] = system: T47D
[30] = system: RPMI-8226
[31] = system: SF-539
[32] = system: OVCAR-8
[33] = system: SN12C
[34] = system: EKVX
[35] = system: COLO 205
[36] = system: MDA-MB-231
[37] = system: K562
[38] = system: CCRF-CEM
[39] = system: HCC 2998
[40] = system: SK-MEL-28
[41] = system: NCI-H460
[42] = system: OVCAR-4
[43] = system: SNB-75
[44] = system: NCI-H226
[45] = system: MOLT-4
[46] = system: A549
[47] = system: OVCAR-5
[48] = system: HOP-62
[49] = system: A498
[50] = system: SNB-19
[51] = system: SR
[52] = system: SK-MEL-2

Measured: GI50

Cc1cn(C(Cc2ccccc2)OCCO)c(=O)[nH]c1=O (configuration not stated)
> 100 µM: [24]
inactive: [1] > 100 µM | [2] > 100 µM | [3] > 100 µM | [4] > 100 µM | [5] > 100 µM | [6] > 100 µM | [7] > 100 µM | [8] > 100 µM | [9] > 100 µM | [10] > 100 µM | [11] > 100 µM | [12] > 100 µM | [13] > 100 µM | [14] > 100 µM | [15] > 100 µM | [16] > 100 µM | [17] > 100 µM | [18] > 100 µM | [19] > 100 µM | [20] > 100 µM | [21] > 100 µM | [22] > 100 µM | [23] > 100 µM | [25] > 100 µM | [26] > 100 µM | [27] > 100 µM | [28] > 100 µM | [29] > 100 µM | [30] > 100 µM | [31] > 100 µM | [32] > 100 µM | [33] > 100 µM | [34] > 100 µM | [35] > 100 µM | [36] > 100 µM | [37] > 100 µM | [38] > 100 µM | [39] > 100 µM | [40] > 100 µM | [41] > 100 µM | [42] > 100 µM | [43] > 100 µM | [44] > 100 µM | [45] > 100 µM | [46] > 100 µM | [47] > 100 µM | [48] > 100 µM | [49] > 100 µM | [50] > 100 µM | [51] > 100 µM | [52] > 100 µM
